Values of other authors in patent publication US9610295B2, “Method for treating erectile dysfunction” (priority 2010, dated 2017).

Tests used:
[1] = oral administration, Viagra formulation
[2] = target: phosphodiesterase type 5 (PDE5) (Homo sapiens, UniProt O76074); details: PDE5 vs PDE6
[3] = in vivo

For `CCCc1nn(C)c2c(=O)[nH]c(-c3cc(S(=O)(=O)N4CCN(C)CC4)ccc3OCC)nc12` [sildenafil, 1-[[3-(6,7-dihydro-1-methyl-7-oxo-3-propyl-1H-pyrazolo[4,3-d]pyrimidin-5-yl)-4-ethoxyphenyl]sulfonyl]-4-methyl piperazine], the absolute bioavailability [1] is given as “about 40%” and the “potency for PDE5 compared to PDE6” value [2] is given as “about 10 fold”.

For `CN1CC(=O)N2[C@H](c3ccc4c(c3)OCO4)c3[nH]c4ccccc4c3C[C@@H]2C1=O` [tadalafil, (6R-trans)-6-(1,3-benzodioxol-5-yl)-2,3,6,7,12,12a-hexahydro-2-methylpyrazino[1,2:1,6]-pyrido[3,4-6]indole-1,4-dione], the half-life [3] is given as “about 17.5 hours”.
